Data reported in PubChem BioAssay (NCI).
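Protocol summary: plate cells (96-well), add compound at 5 concentrations, incubate 48 h, interpolate endpoints linearly. GI50: concentration for 50% inhibition of growth. Definition used: TGI = concentration required for complete inhibition of growth.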

What was measured:
Test in all cases: NCI anticancer screen, dose series, 48 h
EKVX NSCLC = tested on: EKVX NSCLC
LOX IMVI melanoma = tested on: LOX IMVI melanoma
MDA-N = tested on: MDA-N
NCI-H522 lung = tested on: NCI-H522 lung
SF-268 CNS = tested on: SF-268 CNS
SF-295 CNS = tested on: SF-295 CNS
SN12C renal = tested on: SN12C renal
SR leukemia = tested on: SR leukemia
SNB-75 CNS = tested on: SNB-75 CNS

SMILES: CCOC(=O)/C(C)=C\[C@@]1(C)O[C@@H](C)[C@@](C)(OC(C)=O)[C@@H]1OC(C)=O
- TGI (EKVX NSCLC): > 100 µM
- TGI (LOX IMVI melanoma): > 100 µM
- TGI (MDA-N): > 100 µM
- TGI (NCI-H522 lung): 62.7 µM
- TGI (SF-268 CNS): > 100 µM
- TGI (SF-295 CNS): > 100 µM
- TGI (SN12C renal): > 100 µM
- TGI (SR leukemia): > 100 µM

SMILES: CC1=C/C(=N\OCC(=O)O)CC(c2ccc(C(C)C)cc2)C1 (stereo not drawn)
- TGI (EKVX NSCLC): > 100 µM
- TGI (MDA-N): > 100 µM
- TGI (NCI-H522 lung): 79.1 µM
- TGI (SF-295 CNS): > 100 µM
- TGI (SN12C renal): > 100 µM
- TGI (SR leukemia): > 100 µM

SMILES: O=C(NC(C(F)(F)F)(C(F)(F)F)P(=O)(c1ccccc1)c1ccccc1)C(C(F)(F)F)C(F)(F)F
- TGI (EKVX NSCLC): > 100 µM
- TGI (LOX IMVI melanoma): 58.9 µM
- TGI (MDA-N): 44.2 µM
- TGI (NCI-H522 lung): 71.6 µM
- TGI (SF-268 CNS): > 100 µM
- TGI (SF-295 CNS): > 100 µM
- TGI (SN12C renal): 77 µM
- TGI (SNB-75 CNS): 91.3 µM

SMILES: CSC1=N[C@H](c2ccccc2)CS1
- TGI (EKVX NSCLC): > 100 µM
- TGI (MDA-N): > 100 µM
- TGI (SF-295 CNS): > 100 µM
- TGI (SN12C renal): > 100 µM
- TGI (SNB-75 CNS): > 100 µM

SMILES: COc1cc2c(cc1OC)-c1[nH]c3ccc(C#N)cc3c1CC(=O)N2
- TGI (EKVX NSCLC): > 100 µM
- TGI (LOX IMVI melanoma): > 33.6 µM
- TGI (MDA-N): > 90.6 µM
- TGI (NCI-H522 lung): > 100 µM
- TGI (SF-268 CNS): > 100 µM
- TGI (SF-295 CNS): > 100 µM
- TGI (SN12C renal): > 100 µM
- TGI (SNB-75 CNS): > 100 µM

SMILES: O=C(O)C1C(C(=O)O)C2C(=O)C=CC1N2Cc1ccccc1 (stereo not drawn)
- TGI (EKVX NSCLC): 16.3 µM
- TGI (LOX IMVI melanoma): 19.1 µM
- TGI (MDA-N): 11.4 µM
- TGI (NCI-H522 lung): 3.78 µM
- TGI (SF-268 CNS): 11.3 µM
- TGI (SF-295 CNS): 23.4 µM
- TGI (SN12C renal): 5.47 µM
- TGI (SNB-75 CNS): 6.97 µM

SMILES: NC1CC(=O)c2cc(Cl)sc21 (stereo not drawn)
- TGI (EKVX NSCLC): > 100 µM
- TGI (LOX IMVI melanoma): > 100 µM
- TGI (MDA-N): > 100 µM
- TGI (NCI-H522 lung): > 100 µM
- TGI (SF-268 CNS): > 100 µM
- TGI (SF-295 CNS): > 100 µM
- TGI (SN12C renal): > 100 µM
- TGI (SNB-75 CNS): > 100 µM

SMILES: COC(=O)N1C[C@@]2(C=CC3(CC2)OCCO3)c2ccccc21
- TGI (EKVX NSCLC): > 100 µM
- TGI (LOX IMVI melanoma): > 100 µM
- TGI (MDA-N): > 100 µM
- TGI (SF-295 CNS): > 100 µM
- TGI (SN12C renal): > 100 µM
- TGI (SNB-75 CNS): > 100 µM
- TGI (SR leukemia): > 100 µM

SMILES: O=C(O)c1c[nH]c2c(Sc3ccccc3)nccc2c1=O
- TGI (EKVX NSCLC): > 100 µM
- TGI (LOX IMVI melanoma): > 100 µM
- TGI (MDA-N): > 100 µM
- TGI (NCI-H522 lung): > 100 µM
- TGI (SF-268 CNS): > 100 µM
- TGI (SF-295 CNS): > 100 µM
- TGI (SN12C renal): > 100 µM
- TGI (SNB-75 CNS): > 100 µM

SMILES: N#CC1(C#N)C2CCCCC23OC(=N)C1(C#N)C(c1ccco1)O3 (stereo not drawn)
- TGI (EKVX NSCLC): 79.3 µM
- TGI (LOX IMVI melanoma): 37.5 µM
- TGI (MDA-N): 33.8 µM
- TGI (SF-268 CNS): 67.4 µM
- TGI (SF-295 CNS): > 100 µM
- TGI (SN12C renal): 29.2 µM
- TGI (SNB-75 CNS): > 100 µM

SMILES: CC(C)c1ccccc1SC1CC(=O)CC(Sc2ccccc2C(C)C)C12O[C@H](c1ccccc1)[C@@H](c1ccccc1)O2 (stereo partly drawn)
- TGI (EKVX NSCLC): > 100 µM
- TGI (LOX IMVI melanoma): 97.4 µM
- TGI (MDA-N): 47.5 µM
- TGI (SF-295 CNS): > 100 µM
- TGI (SN12C renal): 47.9 µM

SMILES: CSc1nc2ccccc2c(=O)n1/N=C1\C(=O)N(CN2CCCCC2)c2ccc(Cl)cc21
- TGI (EKVX NSCLC): > 100 µM
- TGI (LOX IMVI melanoma): 28.8 µM
- TGI (MDA-N): > 100 µM
- TGI (NCI-H522 lung): 37.3 µM
- TGI (SF-268 CNS): > 100 µM
- TGI (SF-295 CNS): > 100 µM
- TGI (SN12C renal): > 100 µM
- TGI (SNB-75 CNS): 58.4 µM

SMILES: COc1ccc2c(c1)CC[C@@H]1[C@@H]2CC[C@]2(C)C(=O)C3(CCCCC3)C[C@@H]12
- GI50 (EKVX NSCLC): > 100 µM
- TGI (EKVX NSCLC): > 100 µM
- GI50 (LOX IMVI melanoma): > 100 µM
- TGI (LOX IMVI melanoma): > 100 µM
- GI50 (NCI-H522 lung): > 100 µM
- TGI (NCI-H522 lung): > 100 µM
- GI50 (SF-295 CNS): > 100 µM
- TGI (SF-295 CNS): > 100 µM
- GI50 (SN12C renal): > 100 µM
- TGI (SN12C renal): > 100 µM
- GI50 (SNB-75 CNS): > 100 µM
- TGI (SNB-75 CNS): > 100 µM
- GI50 (SR leukemia): > 100 µM
- TGI (SR leukemia): > 100 µM

SMILES: Cc1occc1C(=S)Nc1ccc(Cl)c(C(=O)OCC(F)(F)F)c1
- TGI (EKVX NSCLC): 64.2 µM
- TGI (LOX IMVI melanoma): 34.7 µM
- TGI (MDA-N): > 100 µM
- TGI (NCI-H522 lung): 45.5 µM
- TGI (SF-268 CNS): 42.3 µM
- TGI (SN12C renal): 41.4 µM
- TGI (SNB-75 CNS): 49.4 µM

SMILES: CCOC(=O)NC(C(F)(F)F)(C(F)(F)F)P(=O)(OC(C)C)OC(C)C
- TGI (EKVX NSCLC): > 100 µM
- TGI (LOX IMVI melanoma): > 100 µM
- TGI (MDA-N): > 100 µM
- TGI (SF-268 CNS): > 100 µM
- TGI (SF-295 CNS): > 100 µM
- TGI (SN12C renal): > 100 µM
- TGI (SNB-75 CNS): > 100 µM
- TGI (SR leukemia): > 100 µM

SMILES: O=C(c1ccc(Cl)cc1Cl)N(C(=O)N1CCC(c2ccccc2)CC1)c1ccccc1
- TGI (EKVX NSCLC): > 100 µM
- TGI (LOX IMVI melanoma): > 100 µM
- TGI (SF-295 CNS): > 100 µM
- TGI (SN12C renal): > 100 µM
- TGI (SNB-75 CNS): > 100 µM
- TGI (SR leukemia): > 100 µM

SMILES: CCOC(=O)/C(N=Nc1ccc(-n2c(C)nc3ccccc3c2=O)cc1)=C(/C)O
- TGI (EKVX NSCLC): > 100 µM
- TGI (LOX IMVI melanoma): > 100 µM
- TGI (MDA-N): > 100 µM
- TGI (SF-268 CNS): > 100 µM
- TGI (SF-295 CNS): > 100 µM
- TGI (SN12C renal): > 100 µM
- TGI (SNB-75 CNS): 78.4 µM
- TGI (SR leukemia): > 100 µM

SMILES: O=c1[nH]c(=O)n(C2OC(CO)C(O)C(F)C2O)cc1F (stereo not drawn)
- TGI (LOX IMVI melanoma): > 100 µM
- TGI (MDA-N): > 100 µM
- TGI (NCI-H522 lung): > 100 µM
- TGI (SF-268 CNS): > 100 µM
- TGI (SF-295 CNS): > 100 µM
- TGI (SN12C renal): > 100 µM
- TGI (SR leukemia): 76.4 µM

SMILES: COC(=O)[C@H](Cc1ccccc1)NC(=O)NCCN(CCNC(=O)N[C@@H](Cc1ccccc1)C(=O)OC)C(=O)N[C@@H](Cc1ccccc1)C(=O)OC
- TGI (EKVX NSCLC): > 61.7 µM
- TGI (LOX IMVI melanoma): 76.3 µM
- TGI (MDA-N): 32.9 µM
- TGI (NCI-H522 lung): 29.6 µM
- TGI (SF-268 CNS): 31.5 µM
- TGI (SF-295 CNS): 35.3 µM
- TGI (SNB-75 CNS): 35.9 µM

SMILES: COc1ccc(OC)c2sc(N3C(=O)/C(=C/Cc4ccco4)N=C3c3ccccc3)nc12
- TGI (EKVX NSCLC): > 100 µM
- TGI (LOX IMVI melanoma): 70 µM
- TGI (MDA-N): 48.3 µM
- TGI (SF-268 CNS): > 100 µM
- TGI (SF-295 CNS): > 100 µM
- TGI (SN12C renal): 80 µM
- TGI (SNB-75 CNS): 57.8 µM
- TGI (SR leukemia): 43.9 µM

SMILES: CC1C2CC(CC(=O)N2)C1(C)C (stereo not drawn)
- TGI (EKVX NSCLC): > 100 µM
- TGI (MDA-N): > 100 µM
- TGI (NCI-H522 lung): > 100 µM
- TGI (SF-268 CNS): > 100 µM
- TGI (SF-295 CNS): > 100 µM
- TGI (SN12C renal): > 100 µM
- TGI (SNB-75 CNS): > 100 µM
